Laboratory results published in patent publication US20030150812A1, “Novel parallel throughput system” (priority 2001, published 2003).

What was measured:
[1] = molecular target: α3β4 nicotinic receptor (Homo sapiens, UniProt P30926+P32297); details: Column B with α3β4, 24 cm, 50 nM injection, 10 mM Amm Acetate pH 7.4 and 1 nM dinitrobenzoic acid, 261 nm
Description: (§1) A parallel screen was run using two separate columns containing the different nicotinic receptors α3β2 and […] in the separate columns. […] The mobile phase contained 10 mM Amm Acetate at pH 7.4 and 1 nM Dinitrobenzoic acid. The columns were 24 cm in length.

[2] = molecular target: α3β2 nicotinic receptor (Homo sapiens, UniProt P17787+P32297); details: Column A with α3β2, 24 cm, 50 nM injection, 10 mM Amm Acetate pH 7.4 and 1 nM dinitrobenzoic acid, 261 nm
Sequence of α3β2 nicotinic receptor (P32297 32-505): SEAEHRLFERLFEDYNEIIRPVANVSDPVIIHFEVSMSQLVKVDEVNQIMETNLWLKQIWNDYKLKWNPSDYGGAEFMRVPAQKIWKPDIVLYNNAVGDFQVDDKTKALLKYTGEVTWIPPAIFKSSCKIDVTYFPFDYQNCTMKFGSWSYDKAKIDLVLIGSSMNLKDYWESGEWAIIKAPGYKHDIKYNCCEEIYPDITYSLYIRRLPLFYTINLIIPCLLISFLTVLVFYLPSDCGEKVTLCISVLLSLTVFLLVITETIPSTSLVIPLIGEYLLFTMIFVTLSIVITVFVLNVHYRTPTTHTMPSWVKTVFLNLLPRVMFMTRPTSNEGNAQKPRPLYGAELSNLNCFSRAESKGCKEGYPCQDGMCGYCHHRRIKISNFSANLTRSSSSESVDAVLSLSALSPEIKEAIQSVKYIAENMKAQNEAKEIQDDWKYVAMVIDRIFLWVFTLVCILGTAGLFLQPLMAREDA
Sequence of α3β2 nicotinic receptor (P17787 26-502): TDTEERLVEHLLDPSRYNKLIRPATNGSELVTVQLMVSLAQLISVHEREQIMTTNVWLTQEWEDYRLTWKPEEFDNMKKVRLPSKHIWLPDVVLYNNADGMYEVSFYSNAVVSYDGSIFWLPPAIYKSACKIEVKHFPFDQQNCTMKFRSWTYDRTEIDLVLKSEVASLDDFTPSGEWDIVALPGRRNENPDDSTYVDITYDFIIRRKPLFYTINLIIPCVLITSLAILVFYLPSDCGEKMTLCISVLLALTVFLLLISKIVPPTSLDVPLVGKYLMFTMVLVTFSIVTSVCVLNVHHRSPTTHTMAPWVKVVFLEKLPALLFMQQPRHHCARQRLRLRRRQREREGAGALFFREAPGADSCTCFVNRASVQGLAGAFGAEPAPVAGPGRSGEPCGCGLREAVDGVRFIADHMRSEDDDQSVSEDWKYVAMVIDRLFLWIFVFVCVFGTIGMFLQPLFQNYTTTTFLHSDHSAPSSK
Description: as §1

Sequence of α3β4 nicotinic receptor (P32297 32-505): as the sequence (P32297 32-505) above
Sequence of α3β4 nicotinic receptor (P30926 22-498): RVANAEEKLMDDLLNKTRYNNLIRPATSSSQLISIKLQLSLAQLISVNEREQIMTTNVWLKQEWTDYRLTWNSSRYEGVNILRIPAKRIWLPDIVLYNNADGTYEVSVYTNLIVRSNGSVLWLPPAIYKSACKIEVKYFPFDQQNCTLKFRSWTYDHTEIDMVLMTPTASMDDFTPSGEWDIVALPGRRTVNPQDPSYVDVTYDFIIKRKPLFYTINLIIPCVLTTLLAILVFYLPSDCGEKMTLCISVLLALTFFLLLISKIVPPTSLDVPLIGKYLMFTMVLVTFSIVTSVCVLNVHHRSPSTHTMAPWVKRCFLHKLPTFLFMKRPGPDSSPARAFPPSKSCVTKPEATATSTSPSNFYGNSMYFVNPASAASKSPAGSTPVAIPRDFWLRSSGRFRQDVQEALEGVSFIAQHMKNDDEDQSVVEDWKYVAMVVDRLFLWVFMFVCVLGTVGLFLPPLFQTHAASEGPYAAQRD

CN1CCCC1c1cccnc1 (centres unmarked) [nicotine]
time on receptor column [1]: 0.98 min
time on receptor column [2]: 2.25 min
